These results are taken from patent US20120088737A2, “NOVEL ACYL GUANIDINE DERIVATIVES” (AJINOMOTO CO., INC, priority 2009, published 2012).

The structures appear in SMILES notation.

One assay deals with T1, NHE1 (Homo sapiens, UniProt P19634).
T1 construct: HLF cells (Human hepatoma cell line) were used as cells for the test; endogenous in cells; host or cells: HLF cells (human hepatoma cell line)
Briefly: Measurements of NHE1 inhibitory activities (HLF cells, BCECF pH recovery). Format: cell-based. The following applies: HLF cells (human hepatoma cell line), measured after 10 minutes; read-out: hNHE1 IC50. As to the method: Pharmacological Test Example 1: Measurements of NHE1 Inhibitory Activities
HLF cells (Human hepatoma cell line) were used as cells for the test. After 1×10^4 cells/well were seeded to a 96-well plate and cultured for 3 days, they were cultured overnight under a serum-free medium. Then, the cells were incubated in a stain solution of Tetramethylammonium (TMA) Buffer (130 mM TMA-C1, 5 mM KCl, 2 mM CaCl2, 1 mM MgSO2, 25 mM glucose, 20 mM HEPES; pH 7.4) containing 40 mM NH4Cl and 1 μg/mL pH-sensitive fluorescent indicator BCECF-AM at 37° C. for 40 minutes and then BCECF was introduced into the cells. After the cells were washed once with TMA Buffer and incubated in TMA+40 mM NH4Cl solution at 37° C. for 15 minutes, the solution was removed and 20 μL/well of TMA Buffer and 10 μL/well of each test compound solution prepared with TMA Buffer were added to each well. The measurements were carried out by adding 200 μL/well of Na Buffer (130 mM, NaCl, 5 mM KCl, 2 mM CaCl2, 1 mM MgSO2, 1 mM NaH2PO4, 25 mM glucose, 20 mM HEPES; pH 7.4) or TMA Buffer (for base measurement), immediately placing it on FlexStation (Molecular Device) and then, after 10 minutes, measuring, it the two wavelengths of 505 nm (excitation wavelength)/530 nm (emission wavelength) (measurement value) and 440 nm (excitation wavelength)/530 nm (emission wavelength) (isosbestic point value). A NHE activity was calculated by dividing a measurement value by an isosbestic point value and a NHE1 inhibitory activity was calculated by the following equation. NHE1 inhibitory activity (%)=100×(1−(Measurement value [addition of each compound]−Base [addition of TMA Buffer])/(Control [addition of Na Buffer]−Base [addition of TMA Buffer]))

For a further assay, the target named is T2, human NHE3 (Homo sapiens, UniProt P48764).
T2 construct: expressed in transfected cells; host or cells: OK26 cells (opossum kidney OK cells); OK26 ND sublines with opNHE1 reduced by 90% for A3
T2 sequence (P48764 26-834): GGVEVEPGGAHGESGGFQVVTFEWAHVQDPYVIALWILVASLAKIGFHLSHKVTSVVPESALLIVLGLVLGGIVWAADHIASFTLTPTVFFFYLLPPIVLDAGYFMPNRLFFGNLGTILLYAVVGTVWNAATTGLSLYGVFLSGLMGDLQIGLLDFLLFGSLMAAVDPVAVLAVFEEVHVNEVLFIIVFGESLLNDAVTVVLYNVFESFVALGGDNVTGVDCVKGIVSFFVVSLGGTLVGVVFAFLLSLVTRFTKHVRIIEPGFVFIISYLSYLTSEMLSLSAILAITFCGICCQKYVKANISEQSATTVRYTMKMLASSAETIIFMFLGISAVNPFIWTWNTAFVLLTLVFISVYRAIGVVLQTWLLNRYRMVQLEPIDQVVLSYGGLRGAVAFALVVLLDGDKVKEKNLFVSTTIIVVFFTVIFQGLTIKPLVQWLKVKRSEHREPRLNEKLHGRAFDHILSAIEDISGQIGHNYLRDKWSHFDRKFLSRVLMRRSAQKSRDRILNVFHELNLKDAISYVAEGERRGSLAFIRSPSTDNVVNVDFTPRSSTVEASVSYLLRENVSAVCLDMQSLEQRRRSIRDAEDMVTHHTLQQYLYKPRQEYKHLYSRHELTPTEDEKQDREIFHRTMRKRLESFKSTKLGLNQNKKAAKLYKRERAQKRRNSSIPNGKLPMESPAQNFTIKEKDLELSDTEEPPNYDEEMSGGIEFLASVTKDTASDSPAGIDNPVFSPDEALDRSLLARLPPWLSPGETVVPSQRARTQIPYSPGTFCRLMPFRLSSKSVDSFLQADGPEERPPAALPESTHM
The assay can be described thus: Improved version of measurements of NHE3 inhibitory activities (OK26 ND cell lines). The assay is classed as cell-based. The conditions noted are these: OK26 ND cell lines (opNHE1 expression reduced by 90%), measurement time 8 minutes at 26° C.; read-out: hNHE3 IC50. As for the experimental part:
Pharmacological Test Example 3: Improved Version of Measurements of NHE3 Inhibitory Activities
OK26 cells express endogeneous NHE1 (opNHE1). In order to evaluate NHE3 inhibitory activities more precisely, OK26 ND cell lines in which the expression level of opNHE1 is reduced by 90% were established. Measurements of NEE inhibitory activities were carried out by using the established cell lines in the same manner as described in Pharmacological Test Example 1 except that the measurement time was 8 minutes (at 26° C.) to calculate more precise NHE3 inhibitory activities.

T1 sequence (P19634 whole entry): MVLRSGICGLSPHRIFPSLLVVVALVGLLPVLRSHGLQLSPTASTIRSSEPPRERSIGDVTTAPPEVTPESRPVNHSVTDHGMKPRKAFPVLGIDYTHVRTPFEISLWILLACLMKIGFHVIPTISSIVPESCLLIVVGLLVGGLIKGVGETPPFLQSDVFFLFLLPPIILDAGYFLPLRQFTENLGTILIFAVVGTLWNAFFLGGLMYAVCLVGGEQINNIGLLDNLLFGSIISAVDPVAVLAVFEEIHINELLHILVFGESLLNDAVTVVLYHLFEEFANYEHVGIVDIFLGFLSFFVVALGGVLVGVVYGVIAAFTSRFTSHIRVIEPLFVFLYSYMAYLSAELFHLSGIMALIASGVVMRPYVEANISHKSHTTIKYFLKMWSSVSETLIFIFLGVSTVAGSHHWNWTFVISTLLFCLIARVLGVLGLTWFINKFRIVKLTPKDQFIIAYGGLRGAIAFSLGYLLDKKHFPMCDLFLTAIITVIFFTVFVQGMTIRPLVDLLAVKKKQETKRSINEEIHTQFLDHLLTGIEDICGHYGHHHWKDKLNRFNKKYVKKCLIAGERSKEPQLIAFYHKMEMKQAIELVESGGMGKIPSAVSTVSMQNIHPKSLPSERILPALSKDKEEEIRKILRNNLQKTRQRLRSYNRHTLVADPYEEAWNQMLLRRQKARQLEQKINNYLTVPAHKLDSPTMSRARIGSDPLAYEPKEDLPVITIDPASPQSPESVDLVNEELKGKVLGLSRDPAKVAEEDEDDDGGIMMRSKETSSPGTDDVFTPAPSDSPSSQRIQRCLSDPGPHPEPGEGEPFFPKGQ

Usually IC50 stands for the point on the concentration scale where inhibition reaches its midpoint. In the case of `C/C(=C\c1ccccc1-c1cc[nH]c1)C(=O)NC(=N)N` [Example 84, N-{(E)-2-methyl-3-[2-(1H-pyrrole-3-yl)-phenyl]-acryloyl}-guanidine], the figures for the 50% inhibitory concentration (IC50) at NHE1 and at human NHE3 were 2100 nM and 180 nM, respectively.
In the same order, the values of `C/C(=C\c1ccccc1-c1ccc(O)c(C)c1)C(=O)NC(=N)N` [Example 61, N-[(E)-3-(4′-hydroxy-3′-methyl-biphenyl-2-yl)-2-methyl-acryloyl]-guanidine] are 4300 nM and 400 nM.
With `C/C(=C\c1ccc(-c2ccc(O)cc2)cc1N1CCOCC1)C(=O)NC(=N)N` [Example 94, N-[(E)-3-(4′-hydroxy-3-morpholine-4-yl-biphenyl-4-yl)-2-methyl-acryloyl]-guanidine], the IC50 is 2100 nM at NHE1 and 320 nM on human NHE3.
In the same order, the values of `C/C(=C\c1cccc(C)c1-c1cccc(O)c1)C(=O)NC(=N)N` [Example 68, N-[(E)-3-(3′-hydroxy-6-methyl-biphenyl-2-yl)-2-methyl-acryloyl]-guanidine] are 1700 nM and 120 nM.
In the same order, the values of `C/C(=C\c1ccc(C)cc1-c1ccc(F)c(O)c1)C(=O)NC(=N)N` [Example 63, N-[(E)-3-(4′-fluoro-3′-hydroxy-5-methyl-biphenyl-2-yl)-2-methyl-acryloyl]-guanidine] are 9900 nM and 330 nM.
For `C/C(=C\c1ccc(Oc2ccc(S(N)(=O)=O)cc2)cc1-c1ccc(O)cc1)C(=O)NC(=N)N` [Example 65, 4-[(E)-6-(3-guanidino-2-methyl-3-oxo-propenyl)-4′-hydroxy-biphenyl-3-yloxy]-benzenesulfonamide], the concentration for half-maximal inhibition (IC50) at NHE1 stood at 1500 nM; on human NHE3, 210 nM.
The corresponding values for `C/C(=C\c1ccc(Oc2ccc(S(N)(=O)=O)cc2)cc1-c1cccc(O)c1)C(=O)NC(=N)N` [Example 64, 4-[(E)-6-(3-guanidino-2-methyl-3-oxo-propenyl)-3′-hydroxy-biphenyl-3-yloxy]-benzenesulfonamide] are 1300 nM and 150 nM.
For `COc1cc(-c2ccc(/C=C(\C)C(=O)NC(=N)N)c(-c3ccc(O)c(OC)c3)c2)ccc1O` [Example 78, N-[(E)-3-(2,4-di(3-methoxy-4-hydroxyphenyl)-phenyl)-2-methyl-acryloyl]-guanidine], the IC50 on NHE1 is 3300 nM; at human NHE3, 150 nM.
The corresponding values for `C/C(=C\c1cccc(C)c1-c1ccc(O)cc1)C(=O)NC(=N)N` [Example 67, N-[(E)-3-(4′-hydroxy-6-methyl-biphenyl-2-yl)-2-methyl-acryloyl]-guanidine] are 2100 nM and 120 nM.
The corresponding values for `C/C(=C\c1ccc(-c2cc(C)c(O)c(C)c2)cc1-c1cc(C)c(O)c(C)c1)C(=O)NC(=N)N` [Example 75, N-[(E)-3-(2,4-di(3,5-dimethyl-4-hydroxyphenyl)-phenyl)-2-methyl-acryloyl]-guanidine] are 1800 nM and 100 nM.
On to `C/C(=C\c1c(Br)cccc1-c1ccc(O)cc1)C(=O)NC(=N)N` [Example 70, N-[(E)-3-(3-bromo-4′-hydroxy-biphenyl-2-yl)-2-methyl-acryloyl]-guanidine], for which, on human NHE3, the IC50 is 960 nM.
Turning to `C/C(=C\c1ccccc1-c1cscc1C)C(=O)NC(=N)N` [Example 83, N-{(E)-2-methyl-3-[2-(4-methyl-thiophene-3-yl)-phenyl]-acryloyl}-guanidine], the IC50 on NHE1 stood at 2200 nM; on human NHE3, 540 nM.
Regarding `C/C(=C\c1ccccc1-c1ccc(CO)cc1)C(=O)NC(=N)N` [Example 6, N-[(E)-3-(4′-hydroxymethyl-biphenyl-2-yl)-2-methyl-acryloyl]-guanidine], the IC50 at human NHE3 amounted to 400 nM.
Same read-out and setting: the same measure for `COc1cc(-c2cc(C)ccc2/C=C(\C)C(=O)NC(=N)N)ccc1O` [Example 66, N-[(E)-3-(4′-hydroxy-3′-methoxy-5-methyl-biphenyl-2-yl)-2-methyl-acryloyl]-guanidine]: 130 nM; for `C/C(=C\c1ccc(-c2ccc(O)cc2)cc1C)C(=O)NC(=N)N` [Example 95, N-[(E)-3-(4′-hydroxy-3-methyl-biphenyl-4-yl)-2-methyl-acryloyl]-guanidine]: 240 nM; for `C/C(=C\c1ccc(-c2ccc(CO)cc2)cc1)C(=O)NC(=N)N` [Example 93]: 250 nM.
On to `COc1ccc(-c2cc(C)ccc2/C=C(\C)C(=O)NC(=N)N)cc1O` [Example 74, N-[(E)-3-(3′-hydroxy-4′-methoxy-5-methyl-biphenyl-2-yl)-2-methyl-acryloyl]-guanidine], for which the IC50 on NHE1 amounted to 1400 nM; at human NHE3, 200 nM.
As for `C/C(=C\c1ccc(Oc2ccc(O)cc2)cc1-c1ccc(O)cc1)C(=O)NC(=N)N` [Example 71, N-{(E)-3-[4′-hydroxy-5-(4-hydroxy-phenoxy)-biphenyl-2-yl]-2-methyl-acryloyl}-guanidine], the IC50 at NHE1 is 1300 nM; on human NHE3, 130 nM.
In the same order, the values of `COc1cc(-c2ccccc2/C=C(\C)C(=O)NC(=N)N)ccc1O` [Example 23, N-[(E)-3-(4′-hydroxy-3′-methoxy-biphenyl-2-yl)-2-methyl-acryloyl]guanidine] are 2600 nM and 610 nM.
The corresponding values for `C/C(=C\c1ccccc1-c1ccc(C(=N)N)cc1)C(=O)NC(=N)N` [Example 56, (E)-2′-(3-guanidino-2-methyl-3-oxo-propenyl)-biphenyl-4-carboxamidine] are 3400 nM and 400 nM.
Turning to `C/C(=C\c1ccc(-c2ccc(O)cc2C)cc1)C(=O)NC(=N)N` [Example 90, N-[(E)-3-(4′-hydroxy-2′-methyl-biphenyl-4-yl)-2-methyl-acryloyl]-guanidine], the IC50 on human NHE3 came to 300 nM.
Still for that read-out and setting: next, `COc1ccc(/C=C(\C)C(=O)NC(=N)N)c(-c2ccc(O)cc2)c1` [Example 73, N-[(E)-3-(4′-hydroxy-5-methoxy-biphenyl-2-yl)-2-methyl-acryloyl]-guanidine]: 120 nM; `C/C(=C\c1ccc(-c2ccc(O)cc2C)cc1C)C(=O)NC(=N)N` [Example 96, N-[(E)-3-(4′-hydroxy-3,2′-dimethyl-biphenyl-4-yl)-2-methyl-acryloyl]-guanidine]: 200 nM; `C/C(=C\c1ccc(-c2cc(O)ccc2F)cc1)C(=O)NC(=N)N` [Example 91, N-[(E)-3-(2′-fluoro-5′-hydroxy-biphenyl-4-yl)-2-methyl-acryloyl]-guanidine]: 190 nM.
For `C/C(=C\c1ccc(-c2ccoc2)cc1)C(=O)NC(=N)N` [Example 85, N-[(E)-3-(4-furan-3-yl-phenyl)-2-methyl-acryloyl]-guanidine], the IC50 on human NHE3 came to 470 nM.
Still for that read-out and setting: next, `C/C(=C\c1ccc(-c2ccc(O)c(O)c2)cc1)C(=O)NC(=N)N` [Example 92, N-[(E)-3-(3′,4′-dihydroxy-biphenyl-4-yl)-2-methyl-acryloyl]-guanidine]: 150 nM.
